Assay results taken from US20190053489A1, “ANTIMICROBIAL COMPOSITION” (NATIONAL UNIVERSITY CORPORATION TOKYO MEDICAL AND DENTAL …, priority 2016, published 2019).

Assays:
[1] = system: MRSA; conditions: reported by AOKI and KASHIWAGI; cited from earlier work
[2] = system: MRSA IID 1677; assay: Proliferation suppression against MRSA in a diluted medium (OD600); assay type: cell-based, Methicillin-Resistant Staphylococcus Aureus (MRSA); conditions: diluted 1/2.5 LB medium, 37° C., OD 600 nm; complex 0.001%, lysozyme, chitosan and each of mixture 0.0005%; FIG. 1
Experimental: This test employed MRSA IID 1677, and this microbe strain was cultured in a normal broth medium at 37° C. for 20 hours. The cultured microbial solution was collected by centrifugation (3000 rpm, 10 minutes), suspended with sterilized water, and then diluted with sterilized water so that the optical density would satisfy OD600=1.0. The resultant was diluted 2000 times (corresponding to 10^6 CFU/ml) to prepare a reaction microbial solution.
Each of the LB test medium samples was added with 100 μl of reaction microbial solution and was shake cultured under the condition of 37° C. for 48 hours. Here, the LB test medium samples were prepared using 10 ml of 1/2.5 LB medium added with
(1) 10 ml of sterilized water, (2) 10 ml of the lysozyme-chitosan complex with a concentration of 0.002% (the concentration after addition was 0.001%), (3) 10 ml of lysozyme alone with a concentration of 0.001% (the concentration after addition was 0.0005%), (4) 10 ml of chitosan alone with a concentration of 0.001% (the concentration after addition was 0.0005%), and (5) 10 ml of the mixture of lysozyme and chitosan with a concentration of 0.001% (the concentration of each after addition was 0.0005%).
After that, 3 ml was extracted at time intervals (0, 1, and 2 days), and the optical density was measured at an absorption wavelength of 600 nm. […]

[3] = system: Micrococcus luteus bacteria; assay: Heat resistance evaluation by bacteriolytic test; assay type: physicochemical; conditions: 80° C. for 2 hours; ΔOD at 10 minutes with vs without heating; complex 5%, lysozyme 2.5% aqueous solution; FIG. 6(D)
Experimental: This test is a bacteriolytic test using Micrococcus luteus bacteria being lysozyme-sensitive bacteria. Note that the bacteriolytic activity is an activity specific to lysozyme. Lysozyme is a protein relatively stable against heat. However, it is known that this activity generally decreases considerably for lysozyme heated at 80° C. for 30 minutes.
This test employed an aqueous solution of the lysozyme-chitosan complex with a concentration of 5%, an aqueous solution of lysozyme with a concentration of 2.5%, and an aqueous solution of the mixture of lysozyme and chitosan with a concentration of […]. In addition, Micrococcus luteus bacteria manufactured by Wako Pure Chemical Industries, Ltd. were used as the use bacteria.
First, 1 g of Micrococcus luteus bacteria was weighed on the day before the test, added to 100 ml of physiological saline, and stirred overnight at 4° C. […]
In an optical density meter, 2800 μl of the test microbial solution was set to record OD (0-1) immediately before the addition of the sample. […] Since OD increased here, the highest value OD (0-2) was recorded.
Timer measurement was started after the addition of the sample to record OD at the time of 2, 4, 6, 8, and 10 minutes passed. Each test was carried out twice, and the average was calculated.
With OD for (0-2) being OD at the time of the start, Δoptical density (AOD) at each point was calculated. […]

[4] = system: MRSA IID 1677; assay: Proliferation suppression against MRSA in a standard medium (colony count method); assay type: cell-based, Methicillin-Resistant Staphylococcus Aureus (MRSA); conditions: standard TSB medium with phosphate buffer pH 7.0; complex 0.2%, lysozyme, chitosan, each of mixture 0.1%; FIG. 7
Experimental: This test employed MRSA IID 1677, and this microbe strain was inoculated in 20 ml of a normal broth medium (manufactured by Eiken Chemical Co., Ltd., ‘Eiken’) for overnight shake culture at 37° C. The cultured microbial solution was collected by centrifugation (3000 rpm, 10 minutes), suspended with sterilized water, and then diluted with sterilized water so that the optical density would satisfy OD600=1.0. The resultant was diluted 2000 times (corresponding to 10^6 CFU/ml) to prepare a reaction microbial solution.
Here, the TSB test medium samples were prepared using 10 ml of TSB medium (BD BBL™) added with 200 μl of 1 M phosphate buffer (pH 7.0), followed by further addition of
(1) 10 ml of sterilized water, ([…]), (3) 10 ml of lysozyme alone with a concentration of 0.2% (the concentration after addition was 0.1%), (4) 10 ml of chitosan alone with a concentration of 0.2% (the concentration after addition was 0.1%), and (5) 10 ml of the mixture of lysozyme and chitosan with a concentration of 0.2% (the concentration of each after addition was 0.1%).
After that, 100 μl was extracted and seeded on the MH agar medium, and the number of colonies produced was observed (colony count method). […] Note that the results of FIG. 7 are each the average value of the values obtained by carrying out the colony count method three times.
Note that the results of FIG. 8 are each the average value obtained with two replicate samples.

[5] = system: MRSA; assay: Observation of morphological change in MRSA by electron microscope; assay type: cell-based, Methicillin-Resistant Staphylococcus Aureus (MRSA); conditions: complex 0.1% by mass, lysozyme 0.05%, chitosan 0.05%, mixture each 0.05%; FIG. 16
Experimental: First, the morphological change in MRSA was observed by using a scanning electron microscope. This observation with a scanning electron microscope was carried out as follows: osmium coating (4 nm) was performed as the conductive treatment, and a low-acceleration ultra-high resolution scanning electron microscope (SU 9000 manufactured by Hitachi High-Technologies Corporation (accelerating voltage: 1 kV)) was used. In addition, the samples were MRSA added with physiological saline and MRSA added with a lysozyme-chitosan complex with a concentration of 0.2% by mass.
(§1) Next, the morphological change in MRSA was observed by using a transmission electron microscope. This observation with a transmission electron microscope was carried out as follows: the sample was sliced in 50 nm with a diamond knife as the pretreatment and was stained with uranium acetate and lead citrate, and a transmission electron microscope (JEM-1400 manufactured by JEOL Ltd.) was used. In addition, the samples were MRSA added with physiological saline and MRSA added with a lysozyme-chitosan complex with a concentration of 0.2% by mass.
(§2) Observation was carried out with a scanning electron microscope for the morphological changes in MRSA and pseudomonas aeruginosa treated with the lysozyme-chitosan complex, lysozyme alone, chitosan alone, and the mixture of lysozyme and chitosan (treatment time: 2 hours). This observation with a scanning electron microscope was carried out in the same manner as Example 8 described above: osmium coating (4 nm) was performed as the conductive treatment, and a low-acceleration ultra-high resolution scanning electron microscope (SU 9000 manufactured by Hitachi High-Technologies Corporation (accelerating voltage: 1 kV)) was used. In addition, the samples were MRSA or pseudomonas aeruginosa added with physiological saline, a lysozyme-chitosan complex with a concentration of 0.1% by mass, lysozyme of 0.05% by mass, chitosan of 0.05% by mass, and a mixture of lysozyme and chitosan, each with 0.05% by mass.

[6] = system: pseudomonas aeruginosa; assay: Observation of morphological change in pseudomonas aeruginosa by electron microscope; assay type: cell-based; conditions: complex 0.1% by mass, lysozyme 0.05%, chitosan 0.05%, mixture each 0.05%; FIG. 17
Experimental: as §1
Note that the morphological change in the case of adding the lysozyme-chitosan complex to pseudomonas aeruginosa was also observed using a transmission electron microscope in the same manner as above. […] In other words, the lysozyme-chitosan complex also has a resistant microbe inactivation effect for pseudomonas aeruginosa.
as §2

Molecule	generation at which a resistant microbe is observed to produce [1]	proliferation suppression effect against MRSA for 48 hours [2]	residual activity (bacteriolytic) after heating treatment [3]	proliferation suppression effect against MRSA (ratio of colonies produced 6 hours later to control) [4]	morphological change in MRSA, scanning electron microscope, treatment time 2 hours [5]	morphological change in pseudomonas aeruginosa, scanning electron microscope, treatment time 2 hours [6]
gentamicin	third generation					
CN(C)c1ccc(O)c2c1C[C@H]1C[C@H]3[C@H](N(C)C)C(O)=C(C(N)=O)C(=O)[C@@]3(O)C(O)=C1C2=O [minomycin]	sixth generation					
lysozyme [lysozyme alone, reference compound]		observed to some extent	73.3%	almost no proliferation suppression effect	no significant morphological change was observed	no significant morphological change was observed
